Tested on: normal, non-HF ovine model
Test: Heartbeat-by-heartbeat changes in right and left ventricle contractility (max dP/dt as surrogate) after an injection
Type: in vivo
Conditions: pressure max (dP/dt) used as surrogate for contractility, after injection (calcium: 5 mL)
Excerpt: The correlation was a heartbeat-by-heartbeat analysis. Pressure measurements, taken by a Millar catheter comprising a MEMS pressure sensor, in units of max (dP/dt) was used as a surrogate for contractility.
The first change, a dobutamine injection, provided a very high contractility increase greater than 500%. The average correlation between right ventricle contractility and left ventricle contractility was very good at 0.91, where 1.00 is a perfect correlation. Accordingly, if a subject is given a dobutamine injection, measuring changes to right ventricle contractility can provide accurate information about changes to left ventricle contractility. The first change was repeated three times.
The second change, calcium injection at 5 mL, provided a contractility increase of about 20%. […] The average correlation between right […] contractility and left ventricle contractility using a Millar (MEMS) sensor on a catheter was very good at 0.91. The average correlation between right ventricle contractility and left ventricle contractility using a fluid-filled lumen of a Swan-Ganz catheter in communication with an external pressure sensor was also very good at 0.87. Accordingly, under certain circumstances such as measurement of an animal (normal, non-HF ovine model) model, if a subject is given a calcium injection, measuring changes to right ventricle contractility with a MEMS sensor or a fluid filled lumen can provide accurate information about changes to left ventricle contractility.

SMILES	Contractility % Increase [%]	Contractility % Increase (listed as dobutamine)	Contractility % Increase (listed as calcium)
CC(CCc1ccc(O)cc1)NCCc1ccc(O)c(O)c1 (stereo not shown) [Dobutamine Injection, dobutamine]	>500	greater than 500%	
[Ca+2] [Calcium, calcium]	~20		about 20%

Reference: patent publication US20250381412A1, “METHODS AND SYSTEMS FOR NEUROMODULATION” (Cardionomix, Inc., priority 2022, published 2025)
